System: P12-Ichikawa
Test: cell viability relative to DMSO control; higher = less cytotoxic
Details: 48 h
Method in brief: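 NOMO1 or SEM (500 cells/well) or P12-Ichikawa (1000 cells/well) leukemia cells were adapted for at least four passages in each medium. They were seeded in 1536-well plates (5 μl) and pin-dosed with library compounds in DMSO over an 11-point threefold series, 47 μM to 0.79 nM. CellTiter-Glo One luminescence was read after 48 h at 37°C. Viability is the per-plate percentage relative to DMSO wells, with cell-free wells as background.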

[1] = HPLM + 10% dialyzed FBS, 0.000781 µM
[2] = HPLM + 10% dialyzed FBS, 0.00234 µM
[3] = HPLM + 10% dialyzed FBS, 0.00702 µM
[4] = HPLM + 10% dialyzed FBS, 0.0211 µM
[5] = HPLM + 10% dialyzed FBS, 0.0632 µM
[6] = HPLM + 10% dialyzed FBS, 0.19 µM
[7] = HPLM + 10% dialyzed FBS, 0.569 µM
[8] = HPLM + 10% dialyzed FBS, 1.71 µM
[9] = HPLM + 10% dialyzed FBS, 5.12 µM
[10] = HPLM + 10% dialyzed FBS, 15.4 µM
[11] = HPLM + 10% dialyzed FBS, 46.1 µM
[12] = RPMI 5 mM glucose + 10% FBS, 0.000781 µM
[13] = RPMI 5 mM glucose + 10% FBS, 0.00234 µM
[14] = RPMI 5 mM glucose + 10% FBS, 0.00702 µM
[15] = RPMI 5 mM glucose + 10% FBS, 0.0211 µM
[16] = RPMI 5 mM glucose + 10% FBS, 0.0632 µM
[17] = RPMI 5 mM glucose + 10% FBS, 0.19 µM
[18] = RPMI 5 mM glucose + 10% FBS, 0.569 µM
[19] = RPMI 5 mM glucose + 10% FBS, 1.71 µM
[20] = RPMI 5 mM glucose + 10% FBS, 5.12 µM
[21] = RPMI 5 mM glucose + 10% FBS, 15.4 µM
[22] = RPMI 5 mM glucose + 10% FBS, 46.1 µM
[23] = RPMI 5 mM glucose + 10% dialyzed FBS, 0.000781 µM
[24] = RPMI 5 mM glucose + 10% dialyzed FBS, 0.00234 µM
[25] = RPMI 5 mM glucose + 10% dialyzed FBS, 0.00702 µM
[26] = RPMI 5 mM glucose + 10% dialyzed FBS, 0.0211 µM
[27] = RPMI 5 mM glucose + 10% dialyzed FBS, 0.0632 µM
[28] = RPMI 5 mM glucose + 10% dialyzed FBS, 0.19 µM
[29] = RPMI 5 mM glucose + 10% dialyzed FBS, 0.569 µM
[30] = RPMI 5 mM glucose + 10% dialyzed FBS, 1.71 µM
[31] = RPMI 5 mM glucose + 10% dialyzed FBS, 5.12 µM
[32] = RPMI 5 mM glucose + 10% dialyzed FBS, 15.4 µM
[33] = RPMI 5 mM glucose + 10% dialyzed FBS, 46.1 µM

| SMILES | cell viability [1] | cell viability [2] | cell viability [3] | cell viability [4] | cell viability [5] | cell viability [6] | cell viability [7] | cell viability [8] | cell viability [9] | cell viability [10] | cell viability [11] | cell viability [12] | cell viability [13] | cell viability [14] | cell viability [15] | cell viability [16] | cell viability [17] | cell viability [18] | cell viability [19] | cell viability [20] | cell viability [21] | cell viability [22] | cell viability [23] | cell viability [24] | cell viability [25] | cell viability [26] | cell viability [27] | cell viability [28] | cell viability [29] | cell viability [30] | cell viability [31] | cell viability [32] | cell viability [33] |
| --- | --- | --- | --- | --- | --- | --- | --- | --- | --- | --- | --- | --- | --- | --- | --- | --- | --- | --- | --- | --- | --- | --- | --- | --- | --- | --- | --- | --- | --- | --- | --- | --- | --- |
| CN(C(=O)c1ccc(F)cc1C(F)(F)F)C1CCN(c2nnc(-c3ccnn3C)c3ccccc23)CC1 | 74.9% | 88.9% | 77.9% | 85.9% | 89.2% | 81.8% | 82.1% | 84.5% | 79.4% | 85.4% | 47.3% | 75.1% | 83.3% | 81.5% | 76.2% | 78.5% | 81.5% | 79.4% | 71.7% | 75.3% | 82.8% | 39.6% | 73.7% | 70.6% | 72.8% | 78.5% | 79.9% | 84.8% | 75.9% | 75.1% | 74.3% | 77.7% | 38.2% |
| Nc1cccc(-c2cc3c(Oc4cccc(O)c4)ncnc3[nH]2)c1 | 124% | 121% | 123% | 114% | 122% | 114% | 117% | 106% | 105% | 60.5% | 15.1% |  |  |  |  |  |  |  |  |  |  |  |  |  |  |  |  |  |  |  |  |  |  |
| CN(C)CCC=C1C2=C(C=CC=C2)\C=C/C3=C1C=CC=C3 | 109% | 118% | 114% | 117% | 120% | 123% | 106% | 105% | 96.9% | 105% | 87.1% |  |  |  |  |  |  |  |  |  |  |  | 115% | 109% | 105% | 115% | 119% | 107% | 111% | 102% | 106% | 105% | 84.1% |
| O=C(NC1CC1)c1cccc(-c2ccc3c(NC(=O)C4CC4)n[nH]c3c2)c1 | 109% | 109% | 108% | 113% | 114% | 113% | 112% | 112% | 95.2% | 39.5% | 13.1% | 111% | 114% | 113% | 127% | 121% | 124% | 110% | 113% | 101% | 43.5% | 12.6% | 110% | 120% | 118% | 121% | 118% | 116% | 114% | 112% | 102% | 55.3% | 24.5% |
| CCOC(=O)c1ncn2c1CN(C)C(=O)c1cc(F)ccc1-2 | 120% | 113% | 113% | 117% | 107% | 107% | 111% | 106% | 72% | 67.7% | 62% | 106% | 113% | 109% | 114% | 116% | 126% | 103% | 106% | 92.2% | 71.7% | 48.9% | 112% | 119% | 107% | 119% | 123% | 113% | 116% | 102% | 84.8% | 74.4% | 46.7% |
| CC1=CC2=C(O1)C(=C3OC(=O)\C=C(C)/C3=C2)C | 105% | 116% | 113% | 109% | 113% | 111% | 117% | 111% | 108% | 102% | 99.6% | 89.6% | 107% | 105% | 106% | 103% | 107% | 118% | 106% | 107% | 102% | 96.8% | 102% | 112% | 110% | 111% | 113% | 115% | 110% | 115% | 104% | 105% | 86.8% |
